In ChEMBL document CHEMBL1140984, “A small molecule inhibitor of alpha4 integrin-dependent cell migration” (Bioorg Med Chem, 2009):
The source made the active and inactive calls. The calls are words filed in the database; no cut-off is given here.

Legend:
[1] = biological target: Integrin alpha-4 (Homo sapiens) (UniProt P13612); test: Inhibition of alpha4 integrin-dependent cell migration in CHO cells expressing alpha4 integrin after 12 hrs by wound healing assay; type: cell-based
Jurkat = test: Inhibition of human Jurkat T cell motility after 4.5 hrs by modified Boyden chamber assay; type: functional, cell-based
[2] = biological target: T1, Gamma-parvin (Homo sapiens) (UniProt Q9HBI0); test: Binding affinity to gamma-parvin in human Jurkat cells at 100 uM by Western blot analysis; type: cell-based
T1 sequence (whole entry): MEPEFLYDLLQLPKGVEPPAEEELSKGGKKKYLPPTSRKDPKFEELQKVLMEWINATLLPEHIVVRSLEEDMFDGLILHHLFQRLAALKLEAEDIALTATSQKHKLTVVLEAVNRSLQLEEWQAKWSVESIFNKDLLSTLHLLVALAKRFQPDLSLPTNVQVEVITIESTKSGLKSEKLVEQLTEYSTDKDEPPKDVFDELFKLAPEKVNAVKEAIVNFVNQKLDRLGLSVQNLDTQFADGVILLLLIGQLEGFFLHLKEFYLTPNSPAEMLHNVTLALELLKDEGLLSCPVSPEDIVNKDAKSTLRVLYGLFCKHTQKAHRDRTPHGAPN

[3] = biological target: Adenosine kinase (Homo sapiens) (UniProt P55263); test: Binding affinity to ADK in human Jurkat cells at 100 uM by Western blot analysis; type: cell-based
Adenosine kinase (Homo sapiens), sequence (P55263 2-362 limits assumed): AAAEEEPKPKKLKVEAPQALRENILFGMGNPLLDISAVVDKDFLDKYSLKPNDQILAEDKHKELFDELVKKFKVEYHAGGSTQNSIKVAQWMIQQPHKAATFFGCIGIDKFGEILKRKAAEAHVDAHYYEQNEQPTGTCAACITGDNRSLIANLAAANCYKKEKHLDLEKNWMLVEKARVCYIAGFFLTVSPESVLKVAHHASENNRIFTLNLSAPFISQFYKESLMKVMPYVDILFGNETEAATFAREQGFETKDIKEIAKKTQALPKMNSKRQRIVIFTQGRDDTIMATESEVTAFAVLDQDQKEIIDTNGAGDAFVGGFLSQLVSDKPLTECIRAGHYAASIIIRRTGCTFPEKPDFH

[4] = biological target: Integrin alpha-4 (Homo sapiens) (UniProt P13612); test: Inhibition of alpha4 integrin-dependent cell migration in PMA-stimulated human Jurkat cells at 1 or 5 uM after 4.5 hrs; type: cell-based; design: scale not given: the % may be the effect or the level left
[5] = biological target: Integrin alpha-4 (Homo sapiens) (UniProt P13612); test: Inhibition of alpha4 integrin-dependent cell migration in SDF1-alpha-stimulated human Jurkat cells at 1 or 5 uM after 4.5 hrs; type: cell-based; design: scale not given: the % may be the effect or the level left
[6] = biological target: Integrin alpha-4 (Homo sapiens) (UniProt P13612); test: Inhibition of alpha4 integrin-dependent cell migration in PMA-stimulated human U937 cells at 1 or 5 uM after 4.5 hrs; type: cell-based; design: scale not given: the % may be the effect or the level left; settings: U-937
[7] = biological target: Integrin alpha-4 (Homo sapiens) (UniProt P13612); test: Inhibition of alpha4 integrin-dependent cell migration in SDF1-alpha-stimulated human U937 cells at 1 or 5 uM after 4.5 hrs; type: cell-based; design: scale not given: the % may be the effect or the level left; settings: U-937

Integrin alpha-4 (Homo sapiens), sequence (P13612 whole entry): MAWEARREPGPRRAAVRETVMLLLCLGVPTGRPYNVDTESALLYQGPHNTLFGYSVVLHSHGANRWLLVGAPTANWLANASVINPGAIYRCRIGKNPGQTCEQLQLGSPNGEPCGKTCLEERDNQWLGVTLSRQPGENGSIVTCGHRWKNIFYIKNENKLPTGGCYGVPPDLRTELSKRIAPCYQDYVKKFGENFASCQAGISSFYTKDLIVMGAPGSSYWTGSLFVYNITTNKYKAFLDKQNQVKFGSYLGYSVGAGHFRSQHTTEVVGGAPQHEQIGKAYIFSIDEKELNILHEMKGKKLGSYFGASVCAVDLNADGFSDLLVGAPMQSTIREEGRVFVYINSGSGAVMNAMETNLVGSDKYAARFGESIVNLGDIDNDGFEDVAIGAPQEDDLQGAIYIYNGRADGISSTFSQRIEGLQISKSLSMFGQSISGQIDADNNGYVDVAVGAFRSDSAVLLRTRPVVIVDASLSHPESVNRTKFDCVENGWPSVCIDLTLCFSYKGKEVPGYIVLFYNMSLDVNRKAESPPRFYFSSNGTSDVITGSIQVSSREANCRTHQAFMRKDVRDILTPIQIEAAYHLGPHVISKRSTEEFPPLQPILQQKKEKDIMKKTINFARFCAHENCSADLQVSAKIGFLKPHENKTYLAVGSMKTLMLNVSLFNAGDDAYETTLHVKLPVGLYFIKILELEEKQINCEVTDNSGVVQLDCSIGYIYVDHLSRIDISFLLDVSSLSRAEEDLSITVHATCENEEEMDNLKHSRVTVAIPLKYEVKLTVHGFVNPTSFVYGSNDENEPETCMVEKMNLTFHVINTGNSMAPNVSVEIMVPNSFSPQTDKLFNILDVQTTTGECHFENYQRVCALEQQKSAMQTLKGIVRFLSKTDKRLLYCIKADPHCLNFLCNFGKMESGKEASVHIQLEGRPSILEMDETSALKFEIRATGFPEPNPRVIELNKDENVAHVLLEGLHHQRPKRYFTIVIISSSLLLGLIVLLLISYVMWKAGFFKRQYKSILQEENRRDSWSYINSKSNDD

Structure (SMILES): Nc1ccc(-c2cc3c(Nc4cccc(Cl)c4)ncnc3[nH]2)cc1
- Activity [1]: Dose-dependent effect
- IC50 (Jurkat): 500 nM
- Activity [2]: Active
- Activity [3]: Active
- Activity [4]: 40%
- Activity [5]: 40%
- Activity [6]: 40%
- Activity [7]: 40%
